The target in one experiment is T1, IRAK1 (Homo sapiens, UniProt P51617).
T1 construct: purchased Reaction Biology (RBC HotSpot)
In words: RBC HotSpot Kinase Assay, IRAK1. As to conditions: isolated kinase enzyme, 33P-ATP, P81 filter-binding. In kind it is biochemical. The gist of the method: (§1)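 Reactions ran in 20 mM Hepes (pH 7.5) containing 10 mM MgCl2, 1 mM EGTA, 0.1 mM Na3VO4, 2 mM DTT, 0.02 mg/ml BSA, 0.01% Brij35 and 1% DMSO, plus required cofactors. Functional activity readout on the expressible enzyme form, sometimes C-terminally truncated or lacking receptor regulatory regions.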

For experiment [1], the system named is NF-κB-inducible SEAP reporter in THP-1-Blue NF-κB cells. In words: NF-kB SEAP reporter assay in THP-1-Blue NF-κB cells. The format is cell-based. Conditions: 24 hours. The procedure:
THP-1-Blue NF-κB cells (InvivoGen) carrying a stable integrated NF-κB-inducible secreted embryonic alkaline phosphatase (SEAP) reporter construct were plated at a concentration of 1×10^5 cells per well. The cells were stimulated with Pam3CSK4 (1 ng/mL) or hIL1B (1 ng/mL). After 10-20 minutes, the cells were then treated with vehicle (DMSO) or serial dilutions of the test compounds (10 doses tested for each test compound, with a 1:10 dilution series starting at 1 μM or 3 μM) with a final volume of 200 μL for 24 hours at 37° C. After 24 hours, the cells were centrifuged and 20 μL supernatant was incubated with 180 μL QUANTI-Blue reagent at 37° C. for 30-60 minutes. The levels of NF-κB-induced was measured in a microplate reader at 620 nm.

A further experiment has as its system MOLM14 D835Y cells. In words: MOLM14 D835Y cell viability assay (Cell Titer Glo). In kind it is cell-based. As to conditions: Homo sapiens, MOLM-14, 48 h, cell viability, Cell Titer Glo, 48 hours; read-out: MOLM14 D835Y IC50. The gist of the method:
(§2)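 Luminescent ATP read-out (CellTiter-Glo, 15 min room temperature) taken 48 h after compound addition. Cells were MOLM14 carrying FLT3 D835Y or F691L mutations, plated at 1000 cells per well.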

Another experiment deals with MOLM14 F691L cells. In words: MOLM14 F691L cell viability assay (Cell Titer Glo). The format is cell-based. Conditions: Homo sapiens, MOLM-14; cell viability, Cell Titer Glo, 48 hours; read-out: MOLM14 F691L IC50. The gist of the method:
as §2

In another experiment the target is T2, IRAK4 (Homo sapiens, UniProt Q9NWZ3).
T2 sequence (Q9NWZ3 1-460): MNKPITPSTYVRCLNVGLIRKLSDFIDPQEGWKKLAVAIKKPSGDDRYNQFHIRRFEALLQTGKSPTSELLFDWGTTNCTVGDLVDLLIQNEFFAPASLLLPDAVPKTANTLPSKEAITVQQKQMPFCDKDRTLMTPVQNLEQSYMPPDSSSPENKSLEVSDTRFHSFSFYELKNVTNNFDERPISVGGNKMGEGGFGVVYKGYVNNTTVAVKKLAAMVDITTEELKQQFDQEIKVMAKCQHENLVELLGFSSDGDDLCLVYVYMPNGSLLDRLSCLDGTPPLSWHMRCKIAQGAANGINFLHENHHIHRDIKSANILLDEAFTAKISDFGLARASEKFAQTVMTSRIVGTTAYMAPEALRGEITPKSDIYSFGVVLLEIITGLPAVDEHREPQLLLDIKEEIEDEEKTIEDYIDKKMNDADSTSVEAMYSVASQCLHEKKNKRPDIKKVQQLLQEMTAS
In words: RBC HotSpot Kinase Assay, IRAK4. In kind it is biochemical. On the set-up: purchased Reaction Biology (RBC HotSpot). As to conditions: isolated kinase enzyme, 33P-ATP, P81 filter-binding. An outline of the steps:
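Radiometric filter-binding activity assay with isolated recombinant kinase (construct may be truncated or catalytic domain only) in 20 mM Hepes pH 7.5, 10 mM MgCl2, 1 mM EGTA, 2 mM DTT, 1% DMSO. Compound preincubated 20 min with kinase/substrate; reaction started with 33P-ATP, run 2 h at room temperature.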

Another experiment has as its target T3, FLT3 (Homo sapiens, UniProt P36888).
T3 sequence (P36888 27-993): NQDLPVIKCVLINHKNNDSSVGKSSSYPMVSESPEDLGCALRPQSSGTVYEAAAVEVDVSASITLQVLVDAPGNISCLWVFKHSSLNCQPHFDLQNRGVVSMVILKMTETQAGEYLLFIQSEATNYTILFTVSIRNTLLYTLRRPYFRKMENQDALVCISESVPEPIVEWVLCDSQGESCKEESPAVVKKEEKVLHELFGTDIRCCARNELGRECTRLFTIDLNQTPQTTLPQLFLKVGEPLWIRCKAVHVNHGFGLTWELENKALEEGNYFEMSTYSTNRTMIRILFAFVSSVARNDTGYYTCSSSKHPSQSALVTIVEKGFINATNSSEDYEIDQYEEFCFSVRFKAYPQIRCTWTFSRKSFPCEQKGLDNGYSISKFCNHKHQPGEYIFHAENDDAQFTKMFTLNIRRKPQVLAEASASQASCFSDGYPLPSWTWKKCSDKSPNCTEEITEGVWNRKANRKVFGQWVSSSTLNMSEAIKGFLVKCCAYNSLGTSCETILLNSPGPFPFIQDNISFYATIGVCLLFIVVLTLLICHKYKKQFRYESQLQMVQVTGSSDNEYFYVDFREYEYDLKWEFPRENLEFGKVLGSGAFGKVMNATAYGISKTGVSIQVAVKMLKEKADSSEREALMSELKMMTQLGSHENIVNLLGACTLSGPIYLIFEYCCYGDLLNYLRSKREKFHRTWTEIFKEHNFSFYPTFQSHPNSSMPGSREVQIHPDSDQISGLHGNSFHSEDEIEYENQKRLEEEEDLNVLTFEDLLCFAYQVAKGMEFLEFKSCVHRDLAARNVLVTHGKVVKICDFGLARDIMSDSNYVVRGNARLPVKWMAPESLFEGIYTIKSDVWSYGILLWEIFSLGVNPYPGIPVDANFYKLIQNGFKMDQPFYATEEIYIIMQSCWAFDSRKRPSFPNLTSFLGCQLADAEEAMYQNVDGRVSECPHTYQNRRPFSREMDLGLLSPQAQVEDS
In words: RBC HotSpot Kinase Assay, FLT3. In kind it is biochemical. On the set-up: purchased Reaction Biology (RBC HotSpot). As to conditions: isolated kinase enzyme, 33P-ATP, P81 filter-binding. The gist of the method: as §1

Experiment [2] concerns MOLM14-D835Y cells (FLT3-ITD (D835Y) mutant). In words: Combination drug screening with venetoclax in MOLM14 (D835Y) cells (Cell Titre Glo, 10 × 10). As to conditions: for Excess HSA (sum excess HSA score, combination with venetoclax): 10 × 10 dataset, Cell Titre Glo at 48 hours, optimal of 4 dose combinations, negative = synergy. In kind it is cell-based. On the set-up: Excess HSA (sum excess HSA score, combination with venetoclax): scale not given here. The procedure: (§3) These assays were performed using the Cell Titre Glo assay, measured at 48 hours.
(§4) A smaller concentration indicates higher potency to synergize with Venetoclax.

For the next experiment, the system named is THP1 cells (FLT3 WT). In words: Combination drug screening with venetoclax in THP1 cells (Cell Titre Glo, 10 × 10). The format is cell-based. How it is done: as §3, §4
Setting [3] is: THP-1-Blue NF-κB cells stimulated with Pam3CSK4 (1 ng/mL), read-out: NF-κB Pam3SCK4 IC50.
Where [4] appears, read: THP-1-Blue NF-κB cells stimulated with hIL1B (1 ng/mL), read-out: NF-κB IL1B IC50.

Where two headings read alike, the source gives them in different places.

T1 sequence (P51617 whole entry): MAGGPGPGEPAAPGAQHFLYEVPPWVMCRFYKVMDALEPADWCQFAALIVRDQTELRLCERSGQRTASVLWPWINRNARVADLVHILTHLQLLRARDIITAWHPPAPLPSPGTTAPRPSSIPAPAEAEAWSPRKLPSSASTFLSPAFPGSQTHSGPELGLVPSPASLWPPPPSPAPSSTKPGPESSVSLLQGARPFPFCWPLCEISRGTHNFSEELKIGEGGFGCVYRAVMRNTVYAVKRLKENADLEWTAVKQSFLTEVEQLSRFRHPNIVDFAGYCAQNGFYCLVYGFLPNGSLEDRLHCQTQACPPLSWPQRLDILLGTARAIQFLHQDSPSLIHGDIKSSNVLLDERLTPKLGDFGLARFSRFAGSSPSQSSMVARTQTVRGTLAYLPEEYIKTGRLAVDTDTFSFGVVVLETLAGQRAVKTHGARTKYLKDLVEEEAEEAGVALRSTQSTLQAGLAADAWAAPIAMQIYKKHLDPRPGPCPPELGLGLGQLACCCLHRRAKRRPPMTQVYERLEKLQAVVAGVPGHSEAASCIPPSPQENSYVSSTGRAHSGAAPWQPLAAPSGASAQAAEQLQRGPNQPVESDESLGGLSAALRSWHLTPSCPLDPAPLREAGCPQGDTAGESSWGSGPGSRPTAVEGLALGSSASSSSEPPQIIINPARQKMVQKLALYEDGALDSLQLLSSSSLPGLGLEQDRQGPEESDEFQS

With `COc1cc2ncc(-c3nc(N[C@@H]4CCCNC4)ncc3F)n2nc1C1COC1` [Compound 94a, (R)-5-fluoro-4-(7-methoxy-6-(oxetan-3-yl)imidazo[1,2-b]pyridazin-3-yl)-N-(piperidin-3-yl)pyrimidin-2-amine], the concentration for half-maximal inhibition (IC50) at IRAK1 was 28 nM; in experiment [1] (setting [3]), 188 nM; in experiment [1] (setting [4]) it was 206 nM; in the experiment on MOLM14 D835Y cells, 6 nM; in the experiment on MOLM14 F691L cells, 40 nM; on IRAK4 it was 4 nM. Further, at FLT3, the concentration for half-maximal inhibition (IC50) is less than 0.5 nM.

Regarding `COc1cnc(N[C@H]2CNC[C@@H]2F)nc1-c1cnc2cc(OC)c(C3CC3)nn12` [Compound 104a, 4-(6-cyclopropyl-7-methoxyimidazo[1,2-b]pyridazin-3-yl)-N-((3S,4S)-4-fluoropyrrolidin-3-yl)-5-methoxypyrimidin-2-amine], the IC50 turned out to be 4860 nM at IRAK1; 711 nM in the experiment with MOLM14 D835Y cells; 6340 nM with MOLM14 F691L cells; 25 nM at IRAK4; 14 nM at FLT3. Moreover, the “Excess HSA (sum excess HSA score, combination with venetoclax)” value in experiment [2] is −2179.

In the case of `COc1cc2ncc(-c3nc(N[C@H]4CNC[C@@H]4F)ncc3F)n2nc1N1CCOCC1` [Compound 119a, 5-fluoro-N-((3S,4S)-4-fluoropyrrolidin-3-yl)-4-(7-methoxy-6-morpholinoimidazo[1,2-b]pyridazin-3-yl)pyrimidin-2-amine], the IC50 at IRAK1 is 1 nM; in experiment [1] (setting [3]) it was 57 nM; in experiment [1] (setting [4]) it was 69 nM; in the experiment on MOLM14 D835Y cells, 4 nM; with MOLM14 F691L cells, 45 nM; at IRAK4, less than 0.5 nM. This compound registered an IC50 at FLT3 of less than 0.5 nM.

Consider `COc1cc2ncc(-c3nc(N[C@@H]4CCCNC4)ncc3F)n2nc1N1CCOCC1` [Compound 120a, (R)-5-fluoro-4-(7-methoxy-6-morpholinoimidazo[1,2-b]pyridazin-3-yl)-N-(piperidin-3-yl)pyrimidin-2-amine], for which the IC50 at IRAK1 was determined as 10 nM; in experiment [1] (setting [3]) it was 339 nM; in experiment [1] (setting [4]), 217 nM; in the experiment on MOLM14 D835Y cells it was 5 nM; with MOLM14 F691L cells it was 45 nM; on IRAK4, 10 nM. The compound also returned a half-inhibitory concentration (IC50) at FLT3 of less than 0.5 nM.

With `COc1cc2ncc(-c3nc(N[C@H]4CNCC[C@@H]4F)ncc3F)n2nc1N1CCOCC1` [Compound 121a, 5-fluoro-N-((3S,4S)-4-fluoropiperidin-3-yl)-4-(7-methoxy-6-morpholinoimidazo[1,2-b]pyridazin-3-yl)pyrimidin-2-amine], the IC50 came out at 1 nM at IRAK1; 89 nM in experiment [1] (setting [3]); 57 nM in experiment [1] (setting [4]); 2 nM in the experiment with MOLM14 D835Y cells; 20 nM in the experiment with MOLM14 F691L cells; 0.7 nM at IRAK4. The compound also gave a 50% inhibitory concentration (IC50) at FLT3 of less than 0.5 nM.

Consider `COc1cc2ncc(-c3nc(N[C@H]4CNCC[C@@H]4F)ncc3F)n2nc1N1CCS(=O)(=O)CC1` [Compound 122a, 4-(3-(5-fluoro-2-(((3S,4S)-4-fluoropiperidin-3-yl)amino)pyrimidin-4-yl)-7-methoxyimidazo[1,2-b]pyridazin-6-yl)thiomorpholine 1,1-dioxide], for which the IC50 turned out to be 22 nM at IRAK1; 407 nM in experiment [1] (setting [3]); 407 nM in experiment [1] (setting [4]); 11 nM in the experiment on MOLM14 D835Y cells; 127 nM in the experiment with MOLM14 F691L cells; 18 nM at IRAK4. Further, the IC50 on FLT3 is less than 0.5 nM.

As for `COc1cc2ncc(-c3nc(N[C@H]4CNCC[C@@H]4F)ncc3F)n2nc1[C@H]1C[C@H](O)C1` [Compound 125a, (Trans)-3-(3-(5-fluoro-2-(((3S,4S)-4-fluoropiperidin-3-yl)amino)pyrimidin-4-yl)-7-methoxyimidazo[1,2-b]pyridazin-6-yl)cyclobutan-1-ol], the IC50 was less than 0.5 nM on IRAK1; 30 nM in experiment [1] (setting [3]); 29 nM in experiment [1] (setting [4]); 2 nM in the experiment with MOLM14 D835Y cells; 16 nM in the experiment with MOLM14 F691L cells; less than 0.5 nM on IRAK4. For the same compound, at FLT3, the IC50 was less than 0.5 nM.

For the compound `COc1cc2ncc(-c3nc(N[C@H]4CNCC[C@@H]4F)ncc3F)n2nc1[C@H]1C[C@@H](O)C1` [Compound 126a, Cis-3-(3-(5-fluoro-2-(((3S,4S)-4-fluoropiperidin-3-yl)amino)pyrimidin-4-yl)-7-methoxyimidazo[1,2-b]pyridazin-6-yl)cyclobutan-1-ol], the IC50 at IRAK1 is 37 nM; in experiment [1] (setting [3]), 192 nM; in experiment [1] (setting [4]), 183 nM; in the experiment with MOLM14 D835Y cells, 4 nM; in the experiment on MOLM14 F691L cells it was 80 nM; on IRAK4 it was less than 0.5 nM. On FLT3, this compound gave a half-maximal inhibitory concentration (IC50) of less than 0.5 nM.

For `CCc1nc(C(N)=O)c(Nc2ccc(N3CCC(N4CCN(C)CC4)CC3)c(OC)c2)nc1NC1CCOCC1` [Gilteritinib, reference compound], the “Excess HSA (sum excess HSA score, combination with venetoclax)” value in the experiment with THP1 cells (FLT3 WT) (10 × 10 dataset, Cell Titre Glo at 48 hours, optimal of 4 dose combinations, negative = synergy) is −1626; in experiment [2] it was −1556. Besides, the “Concentration needed to decrease the 312.5 nM Venetoclax response to <20%” value with THP1 cells (FLT3 WT) (Cell Titer Glo at 48 hours) worked out at 10 µM. Also, the “Concentration of a compound of the disclosure, or gilteritinib, needed to decrease the 62.5 nM Ven response to <10% in MOLM14(D835Y) cells” value in experiment [2] (combination with 62.5 nM Venetoclax, Cell Titer Glo, 48 hours, response <10%) turned out to be 125 nM.

(Values after US20260226048A1, “MULTI-CYCLIC IRAK AND FLT3 INHIBITING COMPOUNDS AND USES THEREOF” (CHILDREN'S HOSPITAL MEDICAL CENTER, priority 2023, published 2026).)
